# Assays:
# Format in all cases: in vivo
# [1] = system: FVB/NHan mice inoculated with kainate (KA); experiment: Neuropathological signs in hippocampus after kainate (MAP2, HNE, T.U.N.E.L., GFAP); conditions: for neuritic dystrophy (MAP2 labeling) in hippocampus: 50 mg/kg i.p., 7 days
# Method: (§1) All the animals included for the experimental process were 12-week old males of the FVB/NHan strain. The experiments were conducted strictly following the Guidance on the Operation of Animals (Scientific Procedures, Act. 1986). The animals had their respective quarantine period and were treated with maximum precaution to minimize possible contaminations during inoculations and handling.
# Twenty-five animals were used in this assay and the treatments were all conducted by intraperitoneal (i.p.) route with a volume of 100 μl, according to the following regimens: • i) PBS+PBS+PBS regimen: 4 animals were initially treated with PBS with a daily dose for 2 days, on the second day the animals were inoculated with a new dose of PBS and for the next 7 days with a daily dose of PBS. • ii) NST0037+KA+NST0037 regimen: 7 animals were initially treated with a daily dose for 2 days with NST0037 at 50 mg/kg, on the second day the animals were inoculated with a dose of kainate at 25 mg/Kg and for the next 7 days with a daily dose of NST0037 at 50 mg/kg. • iii) PBS+KA+PBS regimen: 7 animals were initially treated with PBS with a daily dose for 2 days, on the second day the animals were inoculated with a dose of kainate at 25 mg/Kg and for the next 7 days with a daily dose of PBS. • iv) PBS+KA+NST0037 regimen: 7 animals were initially treated with PBS with a daily dose for 2 days, on the second day the animals were inoculated with a dose of kainate at 25 mg/Kg and for the next 7 days with a daily dose of NST0037 at 50 mg/kg.
# (§2) Once the treatment time of 7 days ended, the animals were sacrificed and the brains were dissected. The brain samples were processed and included in paraffin. For the analysis of neuritic dystrophy in the hippocampus, bright field immunochemistry against microtubule associated protein type 2 (MAP2) was performed in 5 μm thick coronal sections.
# as §2, with “oxidative damage due to lipid peroxidation” for “neuritic dystrophy”, “4-hydroxynonenal (HNE)” for “microtubule associated protein type 2 (MAP2)”
# Once the treatment time of 7 days ended, the animals were sacrificed and the brains were dissected. The brain samples were processed and included in paraffin. For the analysis of the presence of neurons in apoptosis in the hippocampus, the T.U.N.E.L. (TdT-mediated dUTP nick end labeling) fluorescence technique was performed in 5 μm thick coronal sections.
# Once the treatment time of 7 days ended, the animals were sacrificed and the brains were dissected. The brain samples were processed and included in paraffin. The analysis of reactive astrogliosis was performed by means of bright field immunochemistry against Glial fibrillary acidic protein (GFAP) in 5 μm thick coronal sections, which protein is present in astrocytes.
# ApoB100 mice = experiment: Hypocholesterolemic effect, oral 28 days, endogenous hyperlipidemia model
# Method: as §1, with “female mice.” for “males of the FVB/NHan strain.”, “for” for “during”
# The control group received this same vehicle. Before starting the treatments and at 7, 21 and 28 days of starting them, retro-orbital blood extractions after fasting for 16 hours were carried out. The plasma was obtained from said blood, in which the total cholesterol (TC), free cholesterol (FC), cholesterol (EC), HDL-c, LDL-c, VLDL-c and apoB100 levels were evaluated by enzymatic and spectrophotometric techniques. In order to check if the effect at the lipid level involved an alteration of the oxidative stress, the redox state in the plasmas obtained was furthermore evaluated by means of the TEAC (Trolox Antioxidant Capacity Assay) technique. This technique determines the antioxidant capacity in vitro, giving an idea of the redox state of the sample analyzed by means of the absorbance capacity by electron transfer. The different components of the reaction, myoglobin, ABTS (2,2-azino-bis-(3-ethylbenzthiazoline-sulfonic acid), […] H2O2 were added to the plasmas diluted 1/10 in PBS (10 μL) in a 96-well plate. After 3 minutes of incubation, the absorbance was measured at 405 nm (with a reference of 600 nm).
# [2] = system: FVB/NHan mice inoculated with kainate (KA); experiment: Antiepileptic effect against kainate in mice (Racine scale)
# Method: as §1, with “for” for “during”
# The animals were intraperitoneally inoculated with 25 mg/kg of kainate (KA) dissolved in PBS. Thirteen animals were pre-treated 24 and 0.5 hours before inoculation with KA by means of intraperitoneal injection with PBS (PBS+KA administration regimen) and 6 were pre-treated 24 and 0.5 hours before inoculation with KA by means of intraperitoneal injection with NST0037 at a dose of 50 mg/kg (NST0037+KA administration regimen). After the inoculation, the animals were individually housed in trays to monitor them. The maximum epilepsy level of the animals was recorded during the observation according to the Racine scale every ten minutes and for at least 120 minutes post-inoculation (m.p.i.).
compound,measurement,setting,value
"CCC(CC)C(=O)O[C@H]1C[C@@H](C)C=C2C=C[C@H](C)[C@H](CC[C@@H]3C[C@@H](O)CC(=O)O3)[C@H]21 [NST0037, (1S,2S,6R,8S,8aR)-1,2,6,7,8,8a-hexahydro-3,7-dimethyl-8-[2-[(2R,4R)-tetrahydro-4-hydroxy-6-oxo-2H-pyran-2-yl]ethyl]-1-naphthalenyl-2-ethyl-butyrate]",apoptosis (T.U.N.E.L.) in hippocampus,[1]; NST0037+KA+NST0037 regimen,did not show neurons positive for T.U.N.E.L.
same,oxidative damage (HNE labeling) in hippocampus,[1]; NST0037+KA+NST0037 regimen,without HNE-labeled neurons
same,reactive astrogliosis (GFAP) in hippocampus,[1]; NST0037+KA+NST0037 regimen,astrocyte pattern very similar to that of the controls
same,neuritic dystrophy (MAP2 labeling) in hippocampus,[1]; NST0037+KA+NST0037 regimen,without evidence of neuritic dystrophy
same,apoptosis (T.U.N.E.L.) in hippocampus,[1]; PBS+KA+NST0037 regimen,reduces the number of neurons in apoptosis to a few isolated cells
same,oxidative damage (HNE labeling) in hippocampus,[1]; PBS+KA+NST0037 regimen,reduces the number of HNE-labeled neurons
same,reactive astrogliosis (GFAP) in hippocampus,[1]; PBS+KA+NST0037 regimen,reduces the number of astrocytes and the intensity of the GFAP labeling
same,neuritic dystrophy (MAP2 labeling) in hippocampus,[1]; PBS+KA+NST0037 regimen,clearly reduces the loss of MAP2 labeling
same,FC and EC levels,"ApoB100 mice; 50 mg/kg oral, 7, 21 and 28 days",reduction of the FC and EC levels
same,HDL,"ApoB100 mice; 50 mg/kg oral, 28 days",reduction of VLDL and HDL
same,LDL,"ApoB100 mice; 50 mg/kg oral, 28 days",smaller increase of LDL
same,VLDL,"ApoB100 mice; 50 mg/kg oral, 28 days",reduction of VLDL
same,apolipoprotein B (apoB) levels,"ApoB100 mice; 50 mg/kg oral, 28 days",visibly reduced
same,redox state of the plasmas (TEAC),"ApoB100 mice; 50 mg/kg oral, 28 days",decrease the redox state
same,plasma total cholesterol levels,"ApoB100 mice; 50 mg/kg oral, 28 days, female apoB100 mice",significantly reducing the plasma total cholesterol levels
same,epileptogenic symptoms from 100 m.p.i.,[2]; NST0037+KA regimen,caused the disappearance of the epileptogenic symptoms
same,epilepsy level on the Racine scale,"[2]; NST0037+KA, 120 minutes observation",< 3
